Measured values from patent US20260335398A1, “METHODS FOR TREATING PANCREATIC CANCER WITH A COMBINATION OF DES-METHYL PATEAMINE A AND A CLASS I HDAC INHIBITOR” (Baylor University, priority 2023, published 2026).

Assays:
MIA PaCa-2 cells = experiment: Glutamine consumption/rescue of mitochondrial function (ΔOCR) (FIG. 8C right); format: cell-based; details: cells starved of glucose, glutamine and pyruvate 1 h, then glutamine
Method: FIG. 8C left panel presents the results of metabolic flux analysis showing basal mitochondrial respiration (OXPHOS) (oxygen consumption rate, OCR) in MIA PaCa-2 cells following treatment with combinations or single drugs. Treatment was for a total of 18 h, as mentioned in FIG. 8A. Statistical significance was determined by one-way ANOVA, ***p value<0.001, *p value<0.01. FIG. 8C right panel presents the results of quantification of glutamine consumption. Cells were treated as mentioned in FIG. 8A. Prior to the metabolic measurements cells were starved of glucose, glutamine, and pyruvate for 1-hour after which glutamine was added and response was recorded as ΔOCR (i.e. OCR before and after glutamine addition). Statistical significance was determined by one-way ANOVA, ****p value<0.0001, ***p value<0.0005.
Because reprograming/augmentation of cellular metabolism by c-MYC is known to support oncogenesis, the Seahorse XF analyzer was used to assess the impact of the treatments on c-MYC-driven metabolism including ATP production, glycolysis, and mitochondrial oxidative phosphorylation (OXPHOS). Extracellular acidification rates, also known as proton efflux rate (PER), were measured for glycolysis and mitochondrial oxygen consumption rates (OCR) for OXPHOS. We utilized the 6 h exposure followed by 18 h washout strategy for romidepsin described earlier. […]

MIA PaCa-2 xenograft = MIA PaCa-2 xenograft model of PDAC, tumor growth (FIG. 2A); format: in vivo, athymic nude mice; details: IP; romidepsin 0.75 mg/kg, DMPatA 0.075 mg/kg; once every four days 2 weeks, then every seven days 5-6 weeks
Text: FIGS. 2A and 2B illustrate the results of a MIA PaCa-2 xenograft model of PDAC in male athymic nude mice. FIG. 2A compares tumor growth (mm^3) in mice treated with the indicated concentrations of combination, romidepsin and DMPatA using IP route and vehicles described in the materials and methods section below. FIG. 2B compares body weight (g) of mice treated with the combination and single agents following treatment. FIGS. 2C and 2D compare quantification of H3K9ac and c-MYC antibodies. Frozen sections from MIA PaCa-2 xenograft tumor tissues were subjected to immunohistochemical analysis using antibodies against H3K9ac, and c-MYC. Fluorescence images were captured using fluorescent microscopy and the fluorescent signal from H3K9ac and c-MYC antibodies were quantified. To quantify fluorescence intensity at least 500 cells per condition were measured for each antibody at 40× magnification. The median of the signal intensity is shown. Statistical significance was determined by one-way ANOVA using Tukey multiple comparisons test, ****p value<0.0001.
Animal studies were performed according to Institutional Animal Care and Use Committee (IACUC) protocol number AC-AABD2601. Following the establishment of initial dose levels for individual drugs, efficacy of the combination and single agents in a MIA PaCa-2 xenograft model was assessed at a tolerable dose and schedule. […]

C/C=C1\NC(=O)[C@H]2CSSCC/C=C/[C@H](CC(=O)N[C@H](C(C)C)C(=O)N2)OC(=O)[C@H](C(C)C)NC1=O [romidepsin]
glutamine rescue of mitochondrial function (ΔOCR) (MIA PaCa-2 cells): impaired glutamine rescue of mitochondrial function
tumor volume (MIA PaCa-2 xenograft): regression in tumor volume
